Test system: SREBP pathway
Test: SREBP luciferase reporter gene system (SRE-luciferase assay)
Format: cell-based, human
Conditions: Huh-7/SRE-luc cells, sterol-deficient medium, 0.01-10 µM
Description: Huh-7/SRE-luc cells were incubated in sterol-deficient medium (5% lipoprotein deficient serum, 2 µM lovastatin, 10 µM mevalonic acid) with corresponding concentrations of compounds for 16 hours. The Huh-7/SRE-luc cells were human hepatoma cell line Huh-7 stably expressing LDLR promotor-luciferase and green fluorescent protein (GFP). These cells were obtained by transfecting Huh-7 with pLDLR-promotor-luciferase and pEGFP-N1 plasmids, followed by screening under G418 antibiotic selection pressure. The Huh-7 cells were purchased from ATCC, the pLDLR-promotor-luciferase plasmid was obtained by molecular cloning methods, and the pEGFP-N1 plasmid was purchased from Addgene.
After compound treatment, the cells were lysed with lysis buffer (E397A, Promega). After the addition of luciferase substrate (E1500, Promega), the activity of SRE-driven luciferase was measured using a BioTek Synergy HTX microplate reader (including but not limited to this type of instrument). The fluorescence intensity of green fluorescent protein (EGFP) was also measured using the above BioTek microplate reader (including but not limited to this type of instrument) and served as an internal control. The ratio of SRE-driven luciferase activity divided by the fluorescence intensity of green fluorescent protein was used as an indicator of SREBP pathway activity. The test data for each test compound were analyzed using Prism software (with the DMSO-treated group as the reference to calculate the compound inhibition rate, fitted using the Prism log(inhibitor) vs. response--Variable slope (four-parameter) model, calculation formula: Y = Bottom + (Top - Bottom)/(1 + 10^((LogIC50 - X) × HillSlope))), to obtain the IC50 parameters of the compounds.
Using the method described in 1.1, the inhibitory effect of the compounds of the present disclosure on the SREBP pathway was tested. The concentration gradient for each compound was designed as 0.01, 0.03, 0.1, 0.3, 1.0, 3.0, and 10 µM, with the vehicle DMSO as the control.

Compound: COc1cc(C(O)CCC[C@@H](C)[C@H]2CC[C@H]3[C@H]4[C@H](CC[C@]23C)[C@@]2(C)CC[C@H](O)[C@H](O)[C@@H]2CC4(F)F)cc(F)n1 (single isomer, unassigned) [Compound 248, (1R,3aS,3bS,5aR,6R,7S,9aR,9bS,11aR)-4,4-difluoro-1-[(2R,6R)-6-(6-fluoro-2-methoxypyridin-4-yl)-6-hydroxyhexan-2-yl]-9a,11a-dimethylhexadecahydro-1H-cyclopenta[1,2-a]phenanthrene-6,7-diol or (1R,3aS,3bS,5aR,6R,7S,9aR,9bS,11aR)-4,4-difluoro-1-[(2R,6S)-6-(6-fluoro-2-methoxypyridin-4-yl)-6-hydroxyhexan-2-yl]-9a,11a-dimethylhexadecahydro-1H-cyclopenta[1,2-a]phenanthrene-6,7-diol]
- IC50 (16 hours): 0.035 µM

Compound: COc1cncc(F)c1C(O)CCC[C@@H](C)[C@H]1CC[C@H]2[C@H]3[C@H](CC[C@]12C)[C@@]1(C)CC[C@H](O)[C@H](O)[C@@H]1CC3(F)F (single isomer, unassigned) [Compound 251, (1R,3aS,3bS,5aR,6R,7S,9aR,9bS,11aR)-4,4-difluoro-1-[(2R,6S)-6-(3-fluoro-5-methoxypyridin-4-yl)-6-hydroxyhexan-2-yl]-9a,11a-dimethylhexadecahydro-1H-cyclopenta[1,2-a]phenanthrene-6,7-diol or (1R,3aS,3bS,5aR,6R,7S,9aR,9bS,11aR)-4,4-difluoro-1-[(2R,6R)-6-(3-fluoro-5-methoxypyridin-4-yl)-6-hydroxyhexan-2-yl]-9a,11a-dimethylhexadecahydro-1H-cyclopenta[1,2-a]phenanthrene-6,7-diol]
- IC50 (Homo sapiens, Huh-7, 16 h): 0.042 µM

Compound: COc1cncc(F)c1C(O)CCC[C@@H](C)[C@H]1CC[C@H]2[C@H]3[C@H](CC[C@]12C)[C@@]1(C)CC[C@H](O)[C@H](O)[C@@H]1CC3(F)F (single isomer, unassigned) [Compound 252, (1R,3aS,3bS,5aR,6R,7S,9aR,9bS,11aR)-4,4-difluoro-1-[(2R,6R)-6-(3-fluoro-5-methoxypyridin-4-yl)-6-hydroxyhexan-2-yl]-9a,11a-dimethylhexadecahydro-1H-cyclopenta[1,2-a]phenanthrene-6,7-diol or (1R,3aS,3bS,5aR,6R,7S,9aR,9bS,11aR)-4,4-difluoro-1-[(2R,6S)-6-(3-fluoro-5-methoxypyridin-4-yl)-6-hydroxyhexan-2-yl]-9a,11a-dimethylhexadecahydro-1H-cyclopenta[1,2-a]phenanthrene-6,7-diol]
- IC50 (16 hours): 0.031 µM

Compound: COc1nc(F)cc(F)c1[C@H](O)CCC[C@@H](C)[C@H]1CC[C@H]2[C@H]3[C@H](CC[C@]12C)[C@@]1(C)CC[C@H](O)[C@H](O)[C@@H]1CC3(F)F (single isomer, unassigned) [Compound 256]
- IC50 (Homo sapiens, Huh-7, 16 h): 0.099 µM

Compound: C[C@H](CCCC(O)c1ccc2c(c1)OC(F)(F)O2)[C@H]1CC[C@H]2[C@H]3[C@H](CC[C@]12C)[C@@]1(C)CC[C@H](O)[C@H](O)[C@@H]1CC3(F)F (single isomer, unassigned) [Compound 258, (1R,3aS,3bS,5aR,6R,7S,9aR,9bS,11aR)-1-[(2R,6S)-6-(2,2-difluorobenzo[d][1,3]dioxol-5-yl)-6-hydroxyhexan-2-yl]-4,4-difluoro-9a,11a-dimethylhexadecahydro-1H-cyclopenta[1,2-a]phenanthrene-6,7-diol or (1R,3aS,3bS,5aR,6R,7S,9aR,9bS,11aR)-1-[(2R,6R)-6-(2,2-difluorobenzo[d][1,3]dioxol-5-yl)-6-hydroxyhexan-2-yl]-4,4-difluoro-9a,11a-dimethylhexadecahydro-1H-cyclopenta[1,2-a]phenanthrene-6,7-diol]
- IC50 (Homo sapiens, Huh-7, 16 h): 0.454 µM

Compound: C[C@H](CCCC(O)c1ccc2c(c1)OC(F)(F)O2)[C@H]1CC[C@H]2[C@H]3[C@H](CC[C@]12C)[C@@]1(C)CC[C@H](O)[C@H](O)[C@@H]1CC3(F)F (single isomer, unassigned) [Compound 259, (1R,3aS,3bS,5aR,6R,7S,9aR,9bS,11aR)-1-[(2R,6R)-6-(2,2-difluorobenzo[d][1,3]dioxol-5-yl)-6-hydroxyhexan-2-yl]-4,4-difluoro-9a,11a-dimethylhexadecahydro-1H-cyclopenta[1,2-a]phenanthrene-6,7-diol or (1R,3aS,3bS,5aR,6R,7S,9aR,9bS,11aR)-1-[(2R,6S)-6-(2,2-difluorobenzo[d][1,3]dioxol-5-yl)-6-hydroxyhexan-2-yl]-4,4-difluoro-9a,11a-dimethylhexadecahydro-1H-cyclopenta[1,2-a]phenanthrene-6,7-diol]
- IC50 (16 hours): 0.249 µM

Compound: COc1cc(F)nc(OC)c1[C@H](O)CCC[C@@H](C)[C@H]1CC[C@H]2[C@H]3[C@H](CC[C@]12C)[C@@]1(C)CC[C@H](O)[C@H](O)[C@@H]1CC3(F)F (single isomer, unassigned) [Compound 264]
- IC50 (Homo sapiens, Huh-7, 16 h): 0.189 µM

Compound: C[C@H](CCCC(O)c1cccc2cn[nH]c12)[C@H]1CC[C@H]2[C@H]3[C@H](CC[C@]12C)[C@@]1(C)CC[C@H](O)[C@H](O)[C@@H]1CC3(F)F (single isomer, unassigned) [Compound 268, (1R,3aS,3bS,5aR,6R,7S,9aR,9bS,11aR)-4,4-difluoro-1-[(2R,6S)-6-hydroxy-6-(1H-indazol-7-yl)hexan-2-yl]-9a,11a-dimethylhexadecahydro-1H-cyclopenta[1,2-a]phenanthrene-6,7-diol or (1R,3aS,3bS,5aR,6R,7S,9aR,9bS,11aR)-4,4-difluoro-1-[(2R,6R)-6-hydroxy-6-(1H-indazol-7-yl)hexan-2-yl]-9a,11a-dimethylhexadecahydro-1H-cyclopenta[1,2-a]phenanthrene-6,7-diol]
- IC50 (16 hours): 0.141 µM

Compound: C[C@H](CCCC(O)c1cccc2cn[nH]c12)[C@H]1CC[C@H]2[C@H]3[C@H](CC[C@]12C)[C@@]1(C)CC[C@H](O)[C@H](O)[C@@H]1CC3(F)F (single isomer, unassigned) [Compound 269, (1R,3aS,3bS,5aR,6R,7S,9aR,9bS,11aR)-4,4-difluoro-1-[(2R,6R)-6-hydroxy-6-(1H-indazol-7-yl)hexan-2-yl]-9a,11a-dimethylhexadecahydro-1H-cyclopenta[1,2-a]phenanthrene-6,7-diol or (1R,3aS,3bS,5aR,6R,7S,9aR,9bS,11aR)-4,4-difluoro-1-[(2R,6S)-6-hydroxy-6-(1H-indazol-7-yl)hexan-2-yl]-9a,11a-dimethylhexadecahydro-1H-cyclopenta[1,2-a]phenanthrene-6,7-diol]
- IC50 (16 hours): 0.8 µM

Compound: C[C@H](CCCC(O)c1cccc2[nH]ncc12)[C@H]1CC[C@H]2[C@H]3[C@H](CC[C@]12C)[C@@]1(C)CC[C@H](O)[C@H](O)[C@@H]1CC3(F)F (single isomer, unassigned) [Compound 273, (1R,3aS,3bS,5aR,6R,7S,9aR,9bS,11aR)-4,4-difluoro-1-[(2R,6S)-6-hydroxy-6-(1H-indazol-4-yl)hexan-2-yl]-9a,11a-dimethylhexadecahydro-1H-cyclopenta[1,2-a]phenanthrene-6,7-diol or (1R,3aS,3bS,5aR,6R,7S,9aR,9bS,11aR)-4,4-difluoro-1-[(2R,6R)-6-hydroxy-6-(1H-indazol-4-yl)hexan-2-yl]-9a,11a-dimethylhexadecahydro-1H-cyclopenta[1,2-a]phenanthrene-6,7-diol]
- IC50 (16 hours): 0.361 µM

Compound: C[C@H](CCCC(O)c1cccc2[nH]ncc12)[C@H]1CC[C@H]2[C@H]3[C@H](CC[C@]12C)[C@@]1(C)CC[C@H](O)[C@H](O)[C@@H]1CC3(F)F (single isomer, unassigned) [Compound 274, (1R,3aS,3bS,5aR,6R,7S,9aR,9bS,11aR)-4,4-difluoro-1-[(2R,6R)-6-hydroxy-6-(1H-indazol-4-yl)hexan-2-yl]-9a,11a-dimethylhexadecahydro-1H-cyclopenta[1,2-a]phenanthrene-6,7-diol or (1R,3aS,3bS,5aR,6R,7S,9aR,9bS,11aR)-4,4-difluoro-1-[(2R,6S)-6-hydroxy-6-(1H-indazol-4-yl)hexan-2-yl]-9a,11a-dimethylhexadecahydro-1H-cyclopenta[1,2-a]phenanthrene-6,7-diol]
- IC50 (16 hours): 0.758 µM

Compound: C[C@H](CCCC(O)c1cccc2nnn(C)c12)[C@H]1CC[C@H]2[C@H]3[C@H](CC[C@]12C)[C@@]1(C)CC[C@H](O)[C@H](O)[C@@H]1CC3(F)F (single isomer, unassigned) [Compound 277, (1R,3aS,3bS,5aR,6R,7S,9aR,9bS,11aR)-4,4-difluoro-1-[(2R,6S)-6-hydroxy-6-(3-methylbenzo[d][1,2,3]triazol-4-yl)hexan-2-yl]-9a,11a-dimethylhexadecahydro-1H-cyclopenta[1,2-a]phenanthrene-6,7-diol or (1R,3aS,3bS,5aR,6R,7S,9aR,9bS,11aR)-4,4-difluoro-1-[(2R,6R)-6-hydroxy-6-(3-methylbenzo[d][1,2,3]triazol-4-yl)hexan-2-yl]-9a,11a-dimethylhexadecahydro-1H-cyclopenta[1,2-a]phenanthrene-6,7-diol]
- IC50 (Homo sapiens, Huh-7, 16 h): 0.369 µM
